Experimental findings from ChEMBL document CHEMBL5543155, “Design, Synthesis, and Biological Evaluation of β-Trifluoroethoxydimethyl Selenides as Potent Antiosteoporosis Agents” (J Med Chem, 2024) are described below.

Activity calls are given as the source filed them. The calls are words filed in the database; no cut-off is given here.

The subject of series [1] is Mus musculus. Kind of series: Anti-osteoporosis activity in ovariectomized C57BL/6 mouse assessed as reduction in bone loss by measuring increase in trabecular number at 10 mg/kg, ip administered every other day for 8 weeks by micro-CT analysis. Type of series: functional, organism-based.
The nature of series [2]: Toxicity in OVX osteoporotic C57BL/6 mouse assessed as abnormal behaviors at 10 mg/kg, ip administered every other day for 8 weeks. Type of series: organism-based. Particulars: in vivo, 1344 h.
Series [3] in a line: Toxicity in OVX osteoporotic C57BL/6 mouse assessed as effect on size and surface gloss of lung at 10 mg/kg, ip administered every other day for 8 weeks by H and E staining based analysis. It is filed as organism-based. Particulars: in vivo, 1344 h.
Series [4] has as its system BMMC. As to the kind of experiment: Effect on total ERK protein expression in RANKL-induced C57BL/6 mouse BMMC cells at 5 uM pretreated for 6 hrs followed by RANKL stimulation and measured upto 60 mins by Western blot analysis. Type of series: functional, cell-based. As to conditions: time <= 7.0 hrs. A general note: Immunoblotting shows a protein as a band on a membrane.

Series [5] deals with MC3T3-E1. As to the kind of experiment: Induction of osteoblast differentiation in mouse MC3T3-E1 cells assessed as bone formation by measuring increase in Runx2 protein expression measured after 7 days by Western blot analysis. Type of series: functional, cell-based. As to conditions: dose 2.5-10 µM, time 7.0 day.
For series [6], the system named is Mus musculus. As to the kind of experiment: Anti-osteoporosis activity in ovariectomized C57BL/6 mouse assessed as reduction in bone loss by measuring increase in bone volume/total bone volume (BV/TV) at 10 mg/kg, ip administered every other day for 8 weeks by micro-CT analysis. Type of series: functional, organism-based.
The test system of series [7] is MC3T3-E1. Kind of series: Cytotoxicity against mouse MC3T3-e1 cells assessed as reduction in cell viability at 2.5 to 10 uM measured after 7 days by MTT assay. Particulars: mc3t3-e1, 168 h, dose 2.5-10 µM, time 7 day. Type of series: toxicity, cell-based. (Formazan colour is commonly taken as a measure of viable cells.)
The test system of series [8] is Mus musculus. As to the kind of experiment: Anti-osteoporosis activity in ovariectomized C57BL/6 mouse assessed as reduction in bone loss at 10 mg/kg, ip administered every other day for 8 weeks by H and E staining based analysis. It is filed as functional, organism-based.
The test system of series [9] is BMMC. As to the kind of experiment: Anti-osteoclastogenesis activity in M-CSF/RANKL-induced C57BL/6 mouse BMMC cells assessed as downregulation of NFATc1 gene expression incubated for 5 days by qRT-PCR analysis. It is filed as functional, cell-based. Particulars: dose 0-10 µM, time 5.0 day. On the technique in general: Quantitative PCR measures a nucleic acid by following its amplification.

For series [10], the system named is BMMC. As to the kind of experiment: Anti-osteoclastogenesis activity in M-CSF/RANKL-induced C57BL/6 mouse BMMC cells assessed as downregulation of TRAP gene expression incubated for 5 days by qRT-PCR analysis. Type of series: functional, cell-based. Particulars: dose 0-10 µM, time 5.0 day.
Series [11] can be described thus: Toxicity in OVX osteoporotic C57BL/6 mouse assessed as effect on size and surface gloss of liver at 10 mg/kg, ip administered every other day for 8 weeks by H and E staining based analysis. It is filed as organism-based. As to conditions: in vivo, 1344 h.
Series [12] concerns Mus musculus. Kind of series: Anti-osteoporosis activity in ovariectomized C57BL/6 mouse assessed as reduction in bone loss by measuring increase in trabecular thickness at 10 mg/kg, ip administered every other day for 8 weeks by micro-CT analysis. It is filed as functional, organism-based.
Series [13] concerns BMMC. Kind of series: Anti-osteoclastogenesis activity in M-CSF/RANKL-induced C57BL/6 mouse BMMC cells assessed as reduction in F-actin ring formation incubated for 7 days with media replacement for every other day by TRITC phalloidin/DAPI-staining based fluorescence microscopic analysis. It is filed as functional, cell-based. As to conditions: dose 0-10 µM, time 7.0 day.
The nature of series [14]: Toxicity in OVX osteoporotic C57BL/6 mouse assessed as effect on size and surface gloss of kidney at 10 mg/kg, ip administered every other day for 8 weeks by H and E staining based analysis. Type of series: organism-based. Particulars: in vivo, 1344 h.
Series [15] deals with c-Jun N-terminal kinase (Mus musculus) (UniProt Q91Y86+Q9WTU6+Q61831). As to the kind of experiment: Inhibition of JNK phosphorylation in RANKL-induced C57BL/6 mouse BMMC cells at 5 uM pretreated for 6 hrs followed by RANKL stimulation and measured upto 60 mins by Western blot analysis. Type of series: cell-based. As to conditions: time <= 7.0 hrs.
The subject of series [16] is MC3T3-E1. Kind of series: Induction of osteoblast differentiation in mouse MC3T3-E1 cells assessed as bone formation by measuring increase in BMP2 protein expression measured after 7 days by Western blot analysis. Type of series: functional, cell-based. Particulars: dose 2.5-10 µM, time 7.0 day.
Series [17] deals with MAP kinase p38 (Mus musculus) (UniProt P47811+O08911+Q9WUI1+Q9Z1B7). Kind of series: Inhibition of p38 phosphorylation in RANKL-induced C57BL/6 mouse BMMC cells at 5 uM pretreated for 6 hrs followed by RANKL stimulation and measured upto 60 mins by Western blot analysis. Particulars: time <= 7.0 hrs. Type of series: cell-based.
Series [18] concerns BMMC. Kind of series: Effect on total p65 protein expression in RANKL-induced C57BL/6 mouse BMMC cells at 5 uM pretreated for 6 hrs followed by RANKL stimulation and measured upto 60 mins by Western blot analysis. It is filed as functional, cell-based. As to conditions: time <= 7.0 hrs.
The test system of series [19] is BMMC. Kind of series: Anti-osteoclastogenesis activity in M-CSF/RANKL-induced C57BL/6 mouse BMMC cells assessed as inhibition of osteoclasts formation incubated for 6 days with media replacement for every 2 days by TRAP-staining based light microscopic analysis. Type of series: functional, cell-based.
Series [20] has as its system BMMC. As to the kind of experiment: Effect on total JNK protein expression in RANKL-induced C57BL/6 mouse BMMC cells at 5 uM pretreated for 6 hrs followed by RANKL stimulation and measured upto 60 mins by Western blot analysis. It is filed as functional, cell-based. Particulars: time <= 7.0 hrs.
For series [21], the system named is MC3T3-E1. As to the kind of experiment: Induction of osteoblast differentiation in mouse MC3T3-E1 cells assessed as bone formation by measuring increase in Smad protein expression measured after 7 days by Western blot analysis. As to conditions: dose 2.5-10 µM, time 7.0 day. It is filed as functional, cell-based.
In series [22] the test system is BMMC. As to the kind of experiment: Anti-osteoclastogenesis activity in M-CSF/RANKL-induced C57BL/6 mouse BMMC cells assessed as downregulation of cathepsin K gene expression incubated for 5 days by qRT-PCR analysis. It is filed as functional, cell-based. As to conditions: dose 0-10 µM, time 5.0 day.

Sequence of c-Jun N-terminal kinase (Mus musculus) (Q61831 whole entry, looked up): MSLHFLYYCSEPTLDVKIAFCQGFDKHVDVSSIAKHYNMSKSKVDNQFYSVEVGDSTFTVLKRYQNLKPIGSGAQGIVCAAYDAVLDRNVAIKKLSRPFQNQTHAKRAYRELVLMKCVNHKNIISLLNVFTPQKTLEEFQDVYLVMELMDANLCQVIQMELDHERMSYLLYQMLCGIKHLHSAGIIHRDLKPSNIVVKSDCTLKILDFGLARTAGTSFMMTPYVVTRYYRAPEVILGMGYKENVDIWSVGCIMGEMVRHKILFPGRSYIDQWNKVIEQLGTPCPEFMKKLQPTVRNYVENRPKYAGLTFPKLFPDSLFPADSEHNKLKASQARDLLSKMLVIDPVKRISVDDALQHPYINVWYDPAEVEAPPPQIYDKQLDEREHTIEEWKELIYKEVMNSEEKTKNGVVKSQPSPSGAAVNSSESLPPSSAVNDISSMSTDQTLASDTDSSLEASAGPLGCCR
Sequence of c-Jun N-terminal kinase (Mus musculus) (Q91Y86 whole entry, looked up): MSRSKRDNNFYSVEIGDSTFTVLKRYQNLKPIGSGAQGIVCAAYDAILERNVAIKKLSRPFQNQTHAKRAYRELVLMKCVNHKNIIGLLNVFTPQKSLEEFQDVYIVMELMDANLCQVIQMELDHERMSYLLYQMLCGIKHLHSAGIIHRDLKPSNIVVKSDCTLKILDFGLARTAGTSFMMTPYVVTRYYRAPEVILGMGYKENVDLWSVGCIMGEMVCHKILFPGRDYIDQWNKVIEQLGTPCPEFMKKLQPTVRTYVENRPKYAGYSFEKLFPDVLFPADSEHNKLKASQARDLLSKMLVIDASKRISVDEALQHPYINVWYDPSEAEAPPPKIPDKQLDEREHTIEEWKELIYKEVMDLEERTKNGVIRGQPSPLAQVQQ
Sequence of c-Jun N-terminal kinase (Mus musculus) (Q9WTU6 whole entry, looked up): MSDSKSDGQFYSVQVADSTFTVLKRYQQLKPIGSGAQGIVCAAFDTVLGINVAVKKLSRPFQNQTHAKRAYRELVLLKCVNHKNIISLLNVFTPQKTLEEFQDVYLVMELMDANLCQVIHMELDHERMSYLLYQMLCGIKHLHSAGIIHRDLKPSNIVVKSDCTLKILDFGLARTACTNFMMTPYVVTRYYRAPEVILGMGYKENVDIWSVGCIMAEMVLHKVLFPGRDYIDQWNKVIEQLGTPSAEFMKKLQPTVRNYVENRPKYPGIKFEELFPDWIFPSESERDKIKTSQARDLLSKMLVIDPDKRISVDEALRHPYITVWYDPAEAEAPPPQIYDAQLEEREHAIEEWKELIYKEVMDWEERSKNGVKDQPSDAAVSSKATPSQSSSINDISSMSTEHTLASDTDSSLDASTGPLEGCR

`CC(C)(OCC(F)(F)F)C([Se]c1ccccc1)C(=O)Nc1ccncc1` (stereo not drawn): the result with Mus musculus [1], with Mus musculus [6], in the series on Mus musculus [8] and in the series on Mus musculus [12] was Active. The Activity result in [2] was “Non-Toxic”; in series [3] it was “Non-Toxic”; with MC3T3-E1 [5], “Dose-Dependent Effect”; with MC3T3-E1 [7] it was “Non-Toxic”; in the series on BMMC [9], “Dose-Dependent Effect”; with BMMC [10], “Dose-Dependent Effect”. In addition, the Activity result in [11] was “Non-Toxic”; in the series on BMMC [13], “Dose-Dependent Effect”; in series [14] it was “Non-Toxic”; in the series with MC3T3-E1 [16], “Dose-Dependent Effect”; in the series with BMMC [19] (dose 0-10 µM, time 6.0 day) it was “Dose-Dependent Effect”; in the series on MC3T3-E1 [21], “Dose-Dependent Effect”. Further, the Activity entry with BMMC [22] was “Dose-Dependent Effect”. For the same compound, the result with BMMC [4], in the series on BMMC [18] and in the series on BMMC [20] was inactive. Further, the inhibition result in series [15] and in [17] was “Active” in each case. Moreover, the IC50 in the series on BMMC [19] (C57BL/6, BMMC) is 2.41 µM.

By IC50 is commonly meant the concentration that inhibits the measured activity by half.
